In ChEMBL document CHEMBL3885881, “DrugMatrix”:

Species: Rattus norvegicus
Assay type: toxicity, organism-based, Sprague-Dawley
Conditions: in vivo, po, 24 h, route oral GAVAGE, time 1 day, […]; for ABSOLUTE BASOPHIL / ABSOLUTE EOSINOPHIL / ABSOLUTE LYMPHOCYTE / ABSOLUTE MONOCYTE / BASOPHIL / EOSINOPHIL / ERYTHROCYTE COUNT / HEMATOCRIT / HEMOGLOBIN / LEUKOCYTE COUNT / LYMPHOCYTE / MEAN CORPUSCULAR HEMOGLOBIN / MEAN CORPUSCULAR HEMOGLOBIN CONCENTRATION / MEAN CORPUSCULAR VOLUME / MONOCYTE / NEUTROPHIL / PLATELET COUNT: tissue Blood; for ALANINE AMINOTRANSFERASE / ALBUMIN / ALKALINE PHOSPHATASE / ASPARTATE AMINOTRANSFERASE / BLOOD UREA NITROGEN / CARBON DIOXIDE / CHLORIDE / CHOLESTEROL / CREATINE PHOSPHOKINASE / CREATININE / GLUCOSE / LACTATE DEHYDROGENASE / LIPASE / PHOSPHORUS / POTASSIUM / SODIUM / TOTAL BILIRUBIN / TOTAL PROTEIN / URIC ACID: tissue Plasma
[1] = 0 mg/kg, vehicle control, dose level Control

Description: DrugMatrix - Regimen: Single

## CC(CCc1ccc(O)cc1)NCCc1ccc(O)c(O)c1 (configuration not stated) [DOBUTAMINE]
[1]
  ABSOLUTE BASOPHIL: 46.7 cells/µL
  ABSOLUTE EOSINOPHIL: 130 cells/µL
  ABSOLUTE LYMPHOCYTE: 8720 cells/µL
  ABSOLUTE MONOCYTE: 140 cells/µL
  BASOPHIL: 0.43%
  EOSINOPHIL: 1.33%
  ERYTHROCYTE COUNT: 6.45 x10E6/uL
  HEMATOCRIT: 42.2%
  HEMOGLOBIN: 13.33 G/DL
  LEUKOCYTE COUNT: 10.59 x10E3/uL
  LYMPHOCYTE: 82.13%
  MEAN CORPUSCULAR HEMOGLOBIN: 20.67 pg
  MEAN CORPUSCULAR HEMOGLOBIN CONCENTRATION: 31.6 G/DL
  MEAN CORPUSCULAR VOLUME: 65.4 fL
  MONOCYTE: 1.37%
  NEUTROPHIL: 14.3%
  PLATELET COUNT: 1048.67 x10E3/uL
  ALANINE AMINOTRANSFERASE: 44 u/L
  ALBUMIN: 3.93 G/DL
  ALKALINE PHOSPHATASE: 551.33 u/L
  ASPARTATE AMINOTRANSFERASE: 97 u/L
  BLOOD UREA NITROGEN: 13.5 mg/dL
  CARBON DIOXIDE: 37.33 mmol/L
  CHLORIDE: 102.33 MEQ/L
  CHOLESTEROL: 83 mg/dL
  CREATINE PHOSPHOKINASE: 365.33 u/L
  CREATININE: 0.4 mg/dL
  GLUCOSE: 189 mg/dL
  LACTATE DEHYDROGENASE: 170.33 u/L
  LIPASE: 10.67 u/L
  PHOSPHORUS: 11.53 mg/dL
  POTASSIUM: 5.63 MEQ/L
  SODIUM: 144.33 MEQ/L
  TOTAL BILIRUBIN: 0.4 mg/dL
  TOTAL PROTEIN: 6.27 G/DL
  URIC ACID: 0.87 mg/dL
15 mg/kg, dose level High
  ABSOLUTE BASOPHIL: 16.7 cells/µL
  ABSOLUTE EOSINOPHIL: 56.7 cells/µL
  ABSOLUTE LYMPHOCYTE: 5150 cells/µL
  ABSOLUTE MONOCYTE: 130 cells/µL
  BASOPHIL: 0.23%
  EOSINOPHIL: 1%
  ERYTHROCYTE COUNT: 6.18 x10E6/uL
  HEMATOCRIT: 41.87%
  HEMOGLOBIN: 13.57 G/DL
  LEUKOCYTE COUNT: 6.42 x10E3/uL
  LYMPHOCYTE: 79.73%
  MEAN CORPUSCULAR HEMOGLOBIN: 21.9 pg
  MEAN CORPUSCULAR HEMOGLOBIN CONCENTRATION: 32.3 G/DL
  MEAN CORPUSCULAR VOLUME: 67.7 fL
  MONOCYTE: 2.1%
  NEUTROPHIL: 16.6%
  PLATELET COUNT: 1219 x10E3/uL
  ALANINE AMINOTRANSFERASE: 48 u/L
  ALBUMIN: 3.87 G/DL
  ALKALINE PHOSPHATASE: 483.33 u/L
  ASPARTATE AMINOTRANSFERASE: 106 u/L
  BLOOD UREA NITROGEN: 13.67 mg/dL
  CARBON DIOXIDE: 36.33 mmol/L
  CHLORIDE: 105 MEQ/L
  CHOLESTEROL: 67.33 mg/dL
  CREATINE PHOSPHOKINASE: 728.67 u/L
  CREATININE: 0.5 mg/dL
  GLUCOSE: 182.33 mg/dL
  LACTATE DEHYDROGENASE: 183.67 u/L
  LIPASE: 13.67 u/L
  PHOSPHORUS: 12.43 mg/dL
  POTASSIUM: 5.77 MEQ/L
  SODIUM: 145 MEQ/L
  TOTAL BILIRUBIN: 0.33 mg/dL
  TOTAL PROTEIN: 6.17 G/DL
  URIC ACID: 1.47 mg/dL
